The structures appear in SMILES notation. Counter-ions that a name gives are not always drawn.

Assay [1] deals with HDAC8 (Homo sapiens (Human), UniProt Q9BY41). Description: In vitro enzyme inhibition assay - HDAC (HDAC-Glo I/II), HDAC8. The class given is biochemical. The conditions noted are these: read-out: HDAC IC50 (nM) HDAC 8. An outline of the steps: (§1)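 Eight compound concentrations (5-fold gradient; 1 mM DMSO stock) were assayed by HDAC-Glo I/II luminescence. IC50 was obtained by four-parameter fitting.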

The subject of assay [2] is DU145 cells. Description: In vitro cell inhibition assay - DU145 cell proliferation (CellTiter-Glo). The class given is cell-based. The conditions noted are these: Homo sapiens, DU-145, Du145 prostate cancer cell proliferation. In a few lines:
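Viability read-out was CellTiter-Glo luminescence after a 6-day, 37° C exposure of DU145 cells (1×10^3/well, 10% FBS RPMI-640) to 8 compound concentrations in 5-fold steps.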
On the technique in general: Cellular ATP, detected with luciferase, serves as a proxy for viable cell number.

The target of assay [3] is LSD1 (Homo sapiens (Human), UniProt O60341). Description: In vitro enzyme inhibition assay - LSD1 (HTRF). It is filed as biochemical. Background: In TR-FRET formats the signal depends on donor and acceptor labels being close together.
In assay [4] the test system is NCI-H1417 cells. Description: In vitro cell inhibition assay - H1417 cell proliferation (CellTiter-Glo). It is filed as cell-based. The conditions noted are these: Homo sapiens, NCI-H1417, H1417 small cell lung cancer cell proliferation. An outline of the steps:
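Cells exposed to 8 compound concentrations (5-fold dilutions) in BEGM with 10% FBS for 7 days at 37° C., 5% CO2. Viable cells measured by CellTiter-Glo luminescence; inhibition versus no-inhibitor and no-cell controls, IC50 fitted.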

In assay [5] the target is pan-HDAC. Description: In vitro enzyme inhibition assay - HDAC (HDAC-Glo I/II), pan-HDAC. The class given is biochemical. In a few lines:
as §1

In assay [6] the target is HDAC1 (Homo sapiens (Human), UniProt Q13547). Description: In vitro enzyme inhibition assay - HDAC (HDAC-Glo I/II), HDAC1. To be noted: read-out: HDAC IC50 (nM) HDAC 1. The class given is biochemical. An outline of the steps:
as §1

Assay [7] concerns NCI-H69 cells. Description: In vitro cell inhibition assay - NCI-H69 cell proliferation (CellTiter-Glo). It is filed as cell-based. To be noted: Homo sapiens, NCI-H69, H69 small cell lung cancer cell proliferation. In a few lines: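 7-day exposure at 37° C., 5% CO2 to compounds serially diluted 5-fold (8 concentrations) in RPMI-640 containing 20% FBS, after overnight attachment at 1×10^3 cells/well. Read-out: CellTiter-Glo luminescence (RLU); IC50 from curve fit of inhibition rate.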

In assay [8] the test system is NCI-H526 cells. Description: In vitro cell inhibition assay - NCI-H526 cell proliferation (CellTiter-Glo). The class given is cell-based. To be noted: Homo sapiens, NCI-H526, 120 h, H526 small cell lung cancer cell proliferation, 5 days. An outline of the steps:
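NCI-H526 cells plated at 1×10^3 per well overnight, then treated with 8 concentrations (5-fold dilutions) in RPMI-640 with 10% FBS for 5 days at 37° C., 5% CO2. Viable cells quantified by CellTiter-Glo luminescence; IC50 fitted from inhibition rates relative to no-inhibitor and no-cell controls.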

HDAC1, sequence (Q13547 whole entry): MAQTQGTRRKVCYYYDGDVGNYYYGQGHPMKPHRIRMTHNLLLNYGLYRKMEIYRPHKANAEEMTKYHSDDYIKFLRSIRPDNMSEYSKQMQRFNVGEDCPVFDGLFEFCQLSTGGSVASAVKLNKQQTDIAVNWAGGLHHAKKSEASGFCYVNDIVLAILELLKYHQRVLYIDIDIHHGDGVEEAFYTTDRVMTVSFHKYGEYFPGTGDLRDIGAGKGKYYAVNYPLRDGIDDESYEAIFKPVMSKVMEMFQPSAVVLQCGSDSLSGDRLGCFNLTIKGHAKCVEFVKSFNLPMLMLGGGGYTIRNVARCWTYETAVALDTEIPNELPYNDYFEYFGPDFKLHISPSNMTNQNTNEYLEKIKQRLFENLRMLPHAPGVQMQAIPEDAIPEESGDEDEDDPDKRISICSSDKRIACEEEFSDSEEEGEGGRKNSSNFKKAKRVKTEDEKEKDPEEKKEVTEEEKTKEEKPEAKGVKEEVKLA
HDAC8, sequence (Q9BY41 whole entry): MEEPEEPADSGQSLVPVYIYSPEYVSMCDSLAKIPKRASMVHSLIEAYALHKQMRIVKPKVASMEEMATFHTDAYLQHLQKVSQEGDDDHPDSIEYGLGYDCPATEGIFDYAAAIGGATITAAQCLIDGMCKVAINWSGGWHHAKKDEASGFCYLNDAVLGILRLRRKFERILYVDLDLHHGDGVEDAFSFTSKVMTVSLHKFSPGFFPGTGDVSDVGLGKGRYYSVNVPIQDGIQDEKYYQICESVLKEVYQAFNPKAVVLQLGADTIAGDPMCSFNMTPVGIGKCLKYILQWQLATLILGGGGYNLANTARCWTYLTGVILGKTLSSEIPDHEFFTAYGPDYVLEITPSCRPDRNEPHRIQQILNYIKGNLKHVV

By IC50 is commonly meant the point on the concentration scale where inhibition reaches its midpoint. As for `COc1ccc(-c2sc(C(=O)N3CCC(NCc4ccc(/C=C/C(=O)NO)cc4)CC3)cc2-c2ccc(C#N)c(F)c2)cc1O` [Example 33, (E)-3-(4-(((1-(4-(4-cyano-3-fluorophenyl)-5-(3-hydroxy-4-methoxyphenyl)thiophene-2-carbonyl)piperidin-4-yl)amino)methyl)phenyl)-N-hydroxyacrylamide hydrochloride], the IC50 is 182 nM in assay [1]; 1980 nM in assay [2]; 3.71 nM in assay [3]; 140 nM in assay [4]; 34.2 nM in assay [5]; 56.4 nM in assay [6]. In addition, the IC50 worked out at 186 nM in assay [7] and 470 nM in assay [8].

For the compound `Cc1noc2cc(-c3c(-c4ccc(C#N)c(F)c4)nc(N4CCC(NCc5ccc(/C=C/C(=O)NO)cc5)CC4)n4ccnc34)c(F)cc12` [Example 36, (E)-3-(4-(((1-(7-(4-Cyano-3-fluorophenyl)-8-(5-fluoro-3-methyl-benzo[d]isoxazol-6-yl)imidazo[1,2-c]pyrimidin-5-yl)piperidin-4-yl)amino)methyl)phenyl)-N-hydroxyacrylamide formate], the IC50 worked out at 97.7 nM in assay [1]; 1010 nM in assay [2]; 1.18 nM in assay [3]; 6.58 nM in assay [4]; 75.1 nM in assay [5]; 118 nM in assay [6]. The figures for the IC50 in assay [7] and in assay [8] were 109 nM and 665 nM, respectively.

Take `COc1ccc(-c2cnc(N3CCC(N(C)Cc4ccc(/C=C/C(=O)NO)cc4)CC3)c(C#N)c2-c2ccc(C#N)c(F)c2)cc1O` [Example 42, (E)-3-(4-(((1-(3-Cyano-4-(4-cyano-3-fluorophenyl)-5-(3-hydroxy-4-methoxyphenyl)pyridin-2-yl)piperidin-4-yl)(methyl)amino)methyl)phenyl)-N-hydroxyacrylamide formate]: the IC50 in assay [1] was 328 nM; in assay [2], 108 nM; in assay [3], 0.33 nM; in assay [4], 0.38 nM; in assay [5], 9.25 nM; in assay [6] it was 7.33 nM. Moreover, the IC50 in assay [7] came to 39.9 nM; in assay [8] it was 22.8 nM.

As to `COc1ccc(-c2cnc(N3CCC(C)(NCc4ccc(/C=C/C(=O)NO)cc4)CC3)c(C#N)c2-c2ccc(C#N)c(F)c2)cc1O` [Example 44, (E)-3-(4-(((1-(3-Cyano-4-(4-cyano-3-fluorophenyl)-5-(3-hydroxy-4-methoxyphenyl)pyridin-2-yl)-4-methylpiperidin-4-yl)amino)methyl)phenyl)-N-hydroxyacrylamide formate], the IC50 in assay [1] is 188 nM; in assay [2], 567 nM; in assay [3], 2.58 nM; in assay [4] it was 16.1 nM; in assay [5] it was 27.9 nM; in assay [6], 45.8 nM. The figures for the IC50 in assay [7] and in assay [8] were 150 nM and 139 nM, respectively.

On to `COc1ccc(-c2cnc(N3CCC(NCCc4ccc(/C=C/C(=O)NO)cc4)CC3)c(C#N)c2-c2ccc(C#N)c(F)c2)cc1O` [Example 45, (E)-3-(4-(2-((1-(3-Cyano-4-(4-cyano-3-fluorophenyl)-5-(3-hydroxy-4-methoxyphenyl)pyridin-2-yl)piperidin-4-yl)amino)ethyl)phenyl)-N-hydroxyacrylamide hydrochloride], for which the concentration for half-maximal inhibition (IC50) in assay [1] is 156 nM; in assay [2], 1050 nM; in assay [3], 0.36 nM; in assay [4] it was 6.48 nM; in assay [5] it was 32.1 nM; in assay [6] it was 70.6 nM. In addition, the IC50 was determined as 151 nM in assay [7] and 288 nM in assay [8].
